Test results reported in the Kinase Knowledgebase extract (Sharma et al. 2016).

What follows are compounds tested against EGFR (human) (UniProt P00533).
Chain of EGFR (human) (P00533 whole entry, looked up): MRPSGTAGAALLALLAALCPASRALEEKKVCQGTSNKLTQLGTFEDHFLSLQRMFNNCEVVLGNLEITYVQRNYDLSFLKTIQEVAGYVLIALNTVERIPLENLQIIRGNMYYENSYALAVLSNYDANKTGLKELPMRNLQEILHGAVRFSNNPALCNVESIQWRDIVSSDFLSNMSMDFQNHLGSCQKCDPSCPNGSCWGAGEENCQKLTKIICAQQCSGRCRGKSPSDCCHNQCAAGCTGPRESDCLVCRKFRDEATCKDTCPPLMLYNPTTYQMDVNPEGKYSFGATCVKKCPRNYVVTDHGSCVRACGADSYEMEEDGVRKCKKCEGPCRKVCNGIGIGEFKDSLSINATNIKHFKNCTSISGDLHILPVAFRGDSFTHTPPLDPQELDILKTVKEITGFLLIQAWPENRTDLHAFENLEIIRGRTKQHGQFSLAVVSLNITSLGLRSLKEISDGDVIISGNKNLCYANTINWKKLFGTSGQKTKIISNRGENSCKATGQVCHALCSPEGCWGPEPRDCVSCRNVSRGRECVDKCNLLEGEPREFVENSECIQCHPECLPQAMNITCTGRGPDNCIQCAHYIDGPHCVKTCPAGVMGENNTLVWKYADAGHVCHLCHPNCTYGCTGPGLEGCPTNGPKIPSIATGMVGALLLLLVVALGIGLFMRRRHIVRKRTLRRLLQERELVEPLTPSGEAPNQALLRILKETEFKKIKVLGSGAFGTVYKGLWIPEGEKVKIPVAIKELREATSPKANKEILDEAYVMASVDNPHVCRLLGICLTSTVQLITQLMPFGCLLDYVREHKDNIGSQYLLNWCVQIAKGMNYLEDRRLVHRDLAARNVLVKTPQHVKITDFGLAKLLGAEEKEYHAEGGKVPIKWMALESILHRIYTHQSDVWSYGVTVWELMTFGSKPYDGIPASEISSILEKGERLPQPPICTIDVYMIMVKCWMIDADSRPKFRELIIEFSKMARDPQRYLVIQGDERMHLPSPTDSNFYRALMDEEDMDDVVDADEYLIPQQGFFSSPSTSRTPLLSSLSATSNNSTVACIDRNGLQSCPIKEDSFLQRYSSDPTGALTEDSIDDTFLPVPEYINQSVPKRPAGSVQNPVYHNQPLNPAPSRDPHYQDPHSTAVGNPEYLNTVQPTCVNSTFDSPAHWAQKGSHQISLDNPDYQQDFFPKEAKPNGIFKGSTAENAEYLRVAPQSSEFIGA

Compound	IC50
CC#CC(=NOC[C@@H]1C[C@H](O)CN1)c1ccc2ncnc(Nc3ccc4c(cnn4Cc4cccc(F)c4)c3)c2c1	9.7 nM
CC#CC(=NOCC(=O)NCCN(C)C)c1ccc2ncnc(Nc3ccc(COc4cccc(F)c4)c(Cl)c3)c2c1	20 nM
CC#CC(=NOCC(=O)NCCOS(C)(=O)=O)c1ccc2ncnc(Nc3ccc(COc4cccc(F)c4)c(Cl)c3)c2c1	47 nM
CC#CC(=NOCC(=O)NCCO)c1ccc2ncnc(Nc3ccc(COc4cccc(F)c4)c(Cl)c3)c2c1	122 nM
CC#CC(=NOC[C@H]1COCCN1)c1ccc2ncnc(Nc3ccc(OCc4cccc(F)c4)c(Cl)c3)c2c1	118 nM
COC[C@@H]1CCCN1N=Cc1ccc2ncnc(Nc3ccc(COc4cccc(F)c4)c(Cl)c3)c2c1	344 nM
CC#CC(=NOC[C@@H]1COCCN1)c1ccc2ncnc(Nc3ccc(OCc4ccccn4)c(Cl)c3)c2c1	6.2 nM
Fc1cccc(OCc2ccc(Nc3ncnc4ccc(C=NN5CCCCC5)cc34)cc2Cl)c1	193 nM
CN(N=Cc1ccc2ncnc(Nc3ccc(COc4cccc(F)c4)c(Cl)c3)c2c1)c1ccccc1	426 nM
CC#CC(=NOC[C@@H]1COCCN1)c1ccc2ncnc(Nc3ccc(OCc4cccc(F)c4)c(Cl)c3)c2c1	101 nM
C#CCN1CCC[C@H]1CON=C(C#CC)c1ccc2ncnc(Nc3ccc(OCc4cccc(F)c4)c(Cl)c3)c2c1	275 nM
